# In patent US20260256751A1, “COMBINATION OF BETA-2-ADRENERGIC RECEPTOR AGONISTS AND GLP-1 RECEPTOR AGONISTS FOR USE IN TREATING HYPERGLYCAEMIA” (ATROGI AB, priority 2023, published 2026):
# Key:
# [1] = test system: differentiated L6-myotubes; assay: cAMP production relative to isoprenaline (Biological example 2 of WO 2019/053427); format: cell-based; conditions: 0.25 h, compound at 10 μM, activity relative to isoproterenol at 10 μM
# Outline: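 Differentiated L6 myotubes stimulated 15 min with test compound or isoprenaline, each at final 1×10^−5 M, in HBSS with 1% BSA, 5 mM HEPES, 1 mM IBMX, pH 7.4. cAMP production by the compound expressed relative to that induced by the same concentration of isoprenaline.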
# [2] = test system: differentiated L6-myotubes; assay: Glucose uptake screen (Biological example 1 of WO 2019/053427); format: cell-based; conditions: compound at 10 μM, activity relative to isoproterenol at 10 μM, read-out: Biological example 1 of WO 2019/053427 (GU)
# Outline: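 Rat L6 myoblasts were differentiated into myotubes over 7 days in 2% FBS, then serum-starved overnight. Cells were stimulated with 1×10^−5 M compound plus β2 antagonist ICI-118551 for 1 h 40 min and re-dosed for 20 min in glucose-free medium. Uptake of 50 nM ^3H-2-deoxyglucose over 10 min was counted after NaOH lysis.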
# [3] = test system: differentiated L6-myotubes; conditions: as described in WO 2019/053427, Biological Example 1 therein; cited from earlier work
# [4] = molecular target: T1, β2-adrenergic receptor (Rattus norvegicus, UniProt P10608); assay: Glucose uptake in the presence of a selective β2-adrenergic receptor inhibitor (Biological Example 1); format: cell-based; conditions: L6-myotubes; Compound A (2HCl salt) 1×10^−5 M in the presence of ICI-118551; FIG. 1
# T1 construct: L6-myoblasts were grown in Dulbecco's Modified Eagle's Medium (DMEM); endogenous in cells; host or cells: L6 myoblasts differentiated into myotubes
# Method: L6-myoblasts were grown in Dulbecco's Modified Eagle's Medium (DMEM) containing 1 g/L glucose supplemented with 10% fetal bovine serum (FBS), 2 mM L-glutamine, 50 U/mL penicillin, 50 g/mL streptomycin and 10 mM HEPES. Cells were plated at 1x 10^5 cells per mL in 24-well plates. After reaching 90% confluence the cells were grown in medium containing 2% FBS for 7 days where upon cells differentiated into myotubes. […] After 1 h 40 min the cells were washed with warm, glucose free medium twice and another portion of agonist was added to the glucose free medium. After another 20 min of incubation the cells were exposed to 50 nM ^3H-2-deoxyglucose for 10 min before washed in ice cold glucose free medium three times and lysed in 400 µl/well 0.2 M NaOH for 1 h at 60° C.
# [5] = test system: male C57Bl/6N mice fed with high-fat, high-sucrose diet; assay: Combination of Compound A and liraglutide in high-fat, high-sucrose diet fed mice (Biological Example 2); format: in vivo; conditions: Compound A hemi-tartrate 1 mg/kg with liraglutide 0.1 mg/kg, subcutaneously, daily for 2 weeks; compared with liraglutide; FIGS. 2-5
# Method: 2.5 Months old male C57Bl/6N mice were grouped caged (4-5 mice per cage), kept at 30° C. and fed with high-fat, high-sucrose diet (45% fat) for 5.5 months. The mice were divided into four groups (2-3 mice per cage) according to their fasting blood glucose levels, glucose tolerance, body weight, body fat and lean mass, and treated daily for 2 weeks, subcutaneously with either vehicle, liraglutide (0.1 mg/kg), Compound A (1 mg/kg), or a mixture of liraglutide (0.1 mg/kg) and Compound A (1 mg/kg). The mice were fasted for 5 h and fasting blood glucose and fasting serum insulin levels were recorded. Glucose (2.5 g/kg lean mass) was injected ip and glucose levels were recorded after 15, 30, 60, 90 and 120 min. The results were used to calculate HOMA-IR (fasting blood glucose (mM)×fasting insulin (μIU/mL)/22.5) and glucose tolerance (area under the curves 0-120 min over the 5.5 mM blood glucose level).
# [6] = test system: differentiated L6-myotubes; conditions: as described in WO 2019/053427, Biological Example 2 therein; cited from earlier work
# T1 sequence (P10608 whole entry): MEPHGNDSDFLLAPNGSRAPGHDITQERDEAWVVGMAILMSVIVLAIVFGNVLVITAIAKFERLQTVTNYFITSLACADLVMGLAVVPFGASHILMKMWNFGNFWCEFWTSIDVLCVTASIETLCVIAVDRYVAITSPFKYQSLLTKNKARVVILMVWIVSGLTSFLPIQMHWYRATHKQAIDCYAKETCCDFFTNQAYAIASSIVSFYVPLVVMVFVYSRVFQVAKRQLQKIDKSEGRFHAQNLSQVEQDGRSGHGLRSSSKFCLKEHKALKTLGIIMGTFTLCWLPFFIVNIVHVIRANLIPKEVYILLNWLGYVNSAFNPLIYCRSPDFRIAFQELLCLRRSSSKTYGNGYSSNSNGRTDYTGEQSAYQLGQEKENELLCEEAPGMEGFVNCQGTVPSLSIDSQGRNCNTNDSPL
SMILES,Emax at 10 µM [1] [%],Emax at 10 µM [2] [%],glucose uptake [3],receptor mediating the glucose uptake promoted by the compound [4],"effects on glucose homeostasis (glycemia, glucose tolerance and insulin sensitivity) [5]",cAMP levels induced [6]
O[C@H](c1cncc(F)c1)C12CCC(C/C=C/c3ccccc3)(CC1)N2 [Compound 530],25 to 50,> 75,–,–,–,–
"O[C@@H](c1cncc(F)c1)C12CCC(CCCc3ccccc3)(CC1)N2 [Compound 531, (S)-(5-fluoro-3-pyridyl){4-(3-phenylpropyl)-7-azabicyclo[2.2.1]hept-1-yl}methanol]",< 25,50 to 75,–,–,–,–
"O[C@H](c1cncc(F)c1)C12CCC(CCCc3ccccc3)(CC1)N2 [Compound 532, (R)-(5-fluoro-3-pyridyl){4-(3-phenylpropyl)-7-azabicyclo[2.2.1]hept-1-yl}methanol]",25 to 50,50 to 75,–,–,–,–
"O[C@@H](c1cccc(F)c1)C12CCC(C/C=C/c3ccccc3)(CC1)N2 [Compound 533, (S)-{4-[(E)-3-phenyl-2-propenyl]-7-azabicyclo[2.2.1]hept-1-yl}(m-fluorophenyl)methanol]",< 25,< 25,–,–,–,–
"O[C@H](c1cccc(F)c1)C12CCC(C/C=C/c3ccccc3)(CC1)N2 [Compound 534, (R)-{4-[(E)-3-phenyl-2-propenyl]-7-azabicyclo[2.2.1]hept-1-yl}(m-fluorophenyl)methanol]",< 25,> 75,–,–,–,–
"O[C@@H](c1cccc(F)c1)C12CCC(CCCc3ccccc3)(CC1)N2 [Compound 535, (S)-(m-fluorophenyl){4-(3-phenylpropyl)-7-azabicyclo[2.2.1]hept-1-yl}methanol]",< 25,25 to 50,–,–,–,–
"O[C@H](c1cccc(F)c1)C12CCC(CCCc3ccccc3)(CC1)N2 [Compound 536, (R)-(m-fluorophenyl){4-(3-phenylpropyl)-7-azabicyclo[2.2.1]hept-1-yl}methanol]",25 to 50,> 75,–,–,–,–
"CS(=O)(=O)N(Cc1ccccc1)CC12CCC([C@H](O)c3cccc(F)c3)(CC1)N2 [Compound 537, (R)-(4-{[(benzyl)-N-mesylamino]methyl}-7-azabicyclo[2.2.1]hept-1-yl)(m-fluorophenyl)methanol]",25 to 50,50 to 75,–,–,–,–
"CS(=O)(=O)N(Cc1ccccc1)CC12CCC([C@@H](O)c3cccc(F)c3)(CC1)N2 [Compound 538, (S)-(4-{[(benzyl)-N-mesylamino]methyl}-7-azabicyclo[2.2.1]hept-1-yl)(m-fluorophenyl)methanol]",< 25,50 to 75,–,–,–,–
"COc1ccc(CCC23CCC([C@@H](O)c4cccc(F)c4)(CC2)N3)cc1 [Compound 539, (S)-(m-fluorophenyl){4-[2-(p-methoxyphenyl)ethyl]-7-azabicyclo[2.2.1]hept-1-yl}methanol]",< 25,< 25,–,–,–,–
"COc1ccc(CCC23CCC([C@H](O)c4cccc(F)c4)(CC2)N3)cc1 [Compound 540, (R)-(m-fluorophenyl){4-[2-(p-methoxyphenyl)ethyl]-7-azabicyclo[2.2.1]hept-1-yl}methanol]",25 to 50,50 to 75,–,–,–,–
"COc1ccc(CCC23CCC([C@@H](O)c4cncc(F)c4)(CC2)N3)cc1 [Compound 541, (S)-(5-fluoro-3-pyridyl){4-[2-(p-methoxyphenyl)ethyl]-7-azabicyclo[2.2.1]hept-1-yl}methanol]",< 25,< 25,–,–,–,–
"COc1ccc(CCC23CCC([C@H](O)c4cncc(F)c4)(CC2)N3)cc1 [Compound 542, (R)-(5-fluoro-3-pyridyl){4-[2-(p-methoxyphenyl)ethyl]-7-azabicyclo[2.2.1]hept-1-yl}methanol]",25 to 50,50 to 75,–,–,–,–
"O[C@@H](c1cncc(F)c1)C12CCC(CCc3ccc(OC(F)(F)F)cc3)(CC1)N2 [Compound 543, (S)-(5-fluoro-3-pyridyl){4-[2-(p-trifluoromethoxyphenyl)ethyl]-7-azabicyclo[2.2.1]hept-1-yl}methanol]",< 25,< 25,–,–,–,–
"O[C@@H](c1cccc(F)c1)C12CCC(CCc3ccc(OC(F)(F)F)cc3)(CC1)N2 [Compound 544, (S)-(m-fluorophenyl){4-[2-(p-trifluoromethoxyphenyl)ethyl]-7-azabicyclo[2.2.1]hept-1-yl}methanol]",< 25,< 25,–,–,–,–
"O[C@H](c1cncc(F)c1)C12CCC(CCc3ccc(OC(F)(F)F)cc3)(CC1)N2 [Compound 545, (R)-(5-fluoro-3-pryidyl){4-[2-(p-trifluoromethoxyphenyl)ethyl]-7-azabicyclo[2.2.1]hept-1-yl}methanol]",< 25,< 25,–,–,–,–
"O[C@H](c1cccc(F)c1)C12CCC(CCc3ccc(OC(F)(F)F)cc3)(CC1)N2 [Compound 546, (R)-(m-fluorophenyl){4-[2-(p-trifluoromethoxyphenyl)ethyl]-7-azabicyclo[2.2.1]hept-1-yl}methanol]",< 25,< 25,–,–,–,–
"O[C@@H](c1ccccc1F)C12CCC(CCc3cccnc3)(CC1)N2 [Compound 547, (S)-(o-fluorophenyl){4-[2-(3-pyridyl)ethyl]-7-azabicyclo[2.2.1]hept-1-yl}methanol]",< 25,> 75,–,–,–,–
"CC(C)(C)NC[C@H](O)c1cncc(F)c1 [Compound A, (R)-2-(tert-Butylamino)-1-(5-fluoropyridin-3-yl)ethan-1-ol]",–,–,significant glucose uptake,mediated through the β2-adrenergic receptor,additional positive effects,without inducing significant levels of cAMP
